Source: patent publication US20050250090A1, “Assay systems and methods for detecting molecules that interact with SK2 channels” (priority 2003, published 2005)
Bridge positions count the residues as written; N and C are the ends. Peptide text beside a SMILES is read from it.

Molecular target: hSK2A^+ (Homo sapiens, UniProt Q9H2S1, DUP58-58)
Assay: Membrane potential sensitive dye fluorescence assay (FLIPR384) in tsA201 cells stably expressing SK2
Assay type: cell-based
Settings: for Hill coefficient (nH): inhibition of ATP/Tg induced decrease in fluorescence, FIG. 9; for effect on the fluorescence signals (responses to ATP/Tg and Cs+): 10 minutes incubation
Protocol: These cells were plated in a black optical bottom 384 well assay plate at a density of 8×10^6 cells/plate. […] After a 30-minute incubation in the voltage sensitive dye, the cell plate was transferred to a fluorescence plate reader (FLIPR384™, Molecular Devices), and ten baseline fluorescence readings were obtained.
Intracellular Ca^2+ levels of the cells were raised by addition of ATP (200 μM final concentration) and thapsigargin (1 μM final concentration). […] In FIG. 8, time is represented in seconds on the X-axis, and fluorescence is represented in au on the Y-axis. ATP/Tg addition is indicated at time 1, and CsCl addition is indicated at time II.
The magnitude of the ATP/Tg induced decrease in fluorescence was measured in the presence of each of a panel of known SK2 inhibitors. […]

Chain of hSK2A^+ (Q9H2S1 with tags, fused parts or gaps DUP58-58): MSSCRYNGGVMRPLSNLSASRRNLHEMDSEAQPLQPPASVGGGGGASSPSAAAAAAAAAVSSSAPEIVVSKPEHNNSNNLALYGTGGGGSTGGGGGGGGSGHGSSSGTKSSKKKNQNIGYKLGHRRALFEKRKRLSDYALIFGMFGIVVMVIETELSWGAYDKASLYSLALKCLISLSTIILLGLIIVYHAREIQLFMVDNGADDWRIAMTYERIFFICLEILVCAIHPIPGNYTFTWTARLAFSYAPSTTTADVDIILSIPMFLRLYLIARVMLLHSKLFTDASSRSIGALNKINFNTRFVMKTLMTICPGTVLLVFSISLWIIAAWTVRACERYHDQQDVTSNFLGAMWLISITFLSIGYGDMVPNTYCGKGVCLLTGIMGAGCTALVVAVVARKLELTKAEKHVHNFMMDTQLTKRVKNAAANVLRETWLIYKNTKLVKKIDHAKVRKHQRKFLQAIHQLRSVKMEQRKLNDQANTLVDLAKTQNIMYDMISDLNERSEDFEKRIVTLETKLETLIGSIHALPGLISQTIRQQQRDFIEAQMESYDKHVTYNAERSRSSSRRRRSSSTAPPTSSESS

Molecule | Hill coefficient (nH) | effect on the fluorescence signals (responses to ATP/Tg and Cs+) (tested at 833 nM) | also measured
O=c1[nH]c2cc(C(F)(F)F)ccc2n1-c1cc(C(F)(F)F)ccc1O [NS1619] | 2 | – | –
noxiustoxin (TIINVKCTSPKQCSKPCKELYGSSAGAKCMNGKCKCYNN) | – | no effect | –
α-dendrotoxin (QPRRKLCILHRNPGRCYDKIPAFYYNQKKKQCERFDWSGCGGNSNRFKTIEECRRTCIG) | – | no effect | –
CC(N/C(=N\C#N)Nc1ccncc1)C(C)(C)C (centres unmarked) [pinacidil] | – | – | effect on the fluorescence signals (responses to ATP/Tg and Cs+) (tested at 286 μM): no effect
iberiotoxin (QFTDVDCSVSKECWSVCKDLFGVDRGKCMGKKCRCYQ) [toxin isolated from Mesobuthus tamulus] | – | no effect | –
C=C[C@H]1C[N@@]2CC[C@H]1C[C@@H]2[C@@H](O)c1ccnc2ccc(OC)cc12 [quinidine] | 0.6 | – | –
CC[C@H](C)[C@@H]1NC(=O)[C@@H]2CSSC[C@H](NC(=O)[C@H](Cc3ccccc3)NC(=O)[C@H](C)N)C(=O)N[C@@H](CC(N)=O)C(=O)N[C@@H](CC(C)C)C(=O)N[C@@H](CCCNC(=N)N)C(=O)N[C@@H](CCSC)C(=O)N[C@H]3CSSC[C@H](NC(=O)[C@H](CCCCN)NC(=O)[C@H](CC(=O)O)NC(=O)CNC1=O)C(=O)N[C@@H](CCC(=O)O)C(=O)N[C@H](C(=O)N[C@H](C(=O)N[C@@H](CCCCN)C(=O)N[C@@H](Cc1c[nH]cn1)C(N)=O)C(C)C)CSSC[C@H](NC(=O)[C@H](CO)NC(=O)[C@H](CC(C)C)NC(=O)[C@H](CCC(N)=O)NC3=O)C(=O)N[C@@H](CCCNC(=N)N)C(=O)N[C@@H](CO)C(=O)N[C@@H](CC(C)C)C(=O)NCC(=O)N[C@@H](CC(C)C)C(=O)N[C@@H](CC(C)C)C(=O)NCC(=O)N[C@@H](CCCCN)C(=O)N2 [scyllatoxin] (H-AFCNLRMCQLSCRSLGLLGKCIGDKCECVKH-NH2; disulfide 3-21, 8-26, 12-28) | – | – | IC50: 1.1 nM
C[N+]1(C)CCc2cc3c(cc2[C@H]1[C@@H]1OC(=O)c2c1ccc1c2OCO1)OCO3.[Br-] [bicuculline methobromide] | 1 | – | –
